From patent publication US8148407B2, “Compounds derived from 5-thioxylose and their use in therapeutics” (Laboratories Fournier S.A., priority 2005, dated 2012) come the findings set out here.

SMILES strings stand for the structures.

For series [1], the system named is venous thrombosis. Kind of series: Venous thrombosis test in the rat (Wessler venous stasis under hypercoagulation with factor Xa), oral administration. It is filed as in vivo. As to conditions: Wistar male rats. The method, then: The antithrombotic activity of the compounds according to the invention was studied in vivo in the rat by means of a test that reproduces a venous thrombosis. The venous thrombosis was induced according to the protocol described in Thromb. Haemost., 1992, 67(1), 176-179. The oral activity was studied according to the following operating protocol: The experiments are performed on non-fasted Wistar male rats weighing 250 to 280 g, divided into groups of 10 animals each. The test products are administered orally (tubage) dissolved or suspended in a solution of methyl cellulose (0.5% in water). […] To induce this thrombosis, a venous stasis is created under hypercoagulation according to the technique described by WESSLER (J. Applied Physiol., 1959, 943-946), the hypercoagulating agent used being a solution of activated factor X (Xa) having a concentration of 7.5 nKat/kg, supplied by Biogenic (Montpellier). The venous stasis is effected exactly 10 seconds after injection of the hypercoagulating agent. The activity of the test compounds was checked at different doses after they had been administered.

The mark [2] stands for this setting: Rattus norvegicus, dose 6 mg/kg, thrombosis induced 2 h after administration, read-out: Oral activity: Activity (percentage inhibition of thrombus formation).
[3] abbreviates: dose 6 mg/kg, thrombosis induced 2 h after administration.

As for `CC(=O)c1ccc(O[C@@H]2SC[C@@H](O)[C@H](O)[C@H]2O)cn1` [Example 2, 6-acetyl-3-pyridinyl 5-thio-β-D-xylopyranoside], in series [1] (setting [2]), the inhibition in vivo at 6 mg/kg came to 63%.

In the case of `CC(=O)O[C@@H]1[C@@H](OC(C)=O)[C@H](OC(C)=O)CS[C@H]1Oc1cccnc1C(C)=O` [Example 3, 2-acetyl-3-pyridinyl 2,3,4-tri-O-acetyl-5-thio-β-D-xylopyranoside], in series [1] (Rattus norvegicus, dose 8.6 mg/kg, thrombosis induced 2 h after administration, read-out: Oral activity: Activity (percentage inhibition of thrombus formation)), the inhibition in vivo at 8.6 mg/kg was found to be 92%. With `CC(=O)c1ncccc1O[C@@H]1SC[C@@H](O)[C@H](O)[C@H]1O` [Example 4, 2-acetyl-3-pyridinyl 5-thio-β-D-xylopyranoside], the melting point stood at 123 °C. In addition, in series [1] (setting [2]), the inhibition in vivo at 6 mg/kg came out at 96%. In the case of `N#Cc1ccc(C(=O)c2ncccc2O[C@@H]2SC[C@@H](O)[C@H](O)[C@H]2O)cc1` [Example 6, [2-(4-cyanobenzoyl)-3-pyridinyl]5-thio-β-D-xylopyranoside], the “Oral activity: Activity (percentage inhibition of thrombus formation)” value turned out to be 61% in series [1] (setting [3]) and 26% in series [1] (dose 6 mg/kg, thrombosis induced 8 h after administration). As for `O=C(c1ccc(C(F)(F)F)cc1)c1ccc(O[C@@H]2SC[C@@H](O)[C@H](O)[C@H]2O)cn1` [Example 8, [6-[4-(trifluoromethyl)benzoyl]-3-pyridinyl]5-thio-β-D-xylopyranoside], the “Oral activity: Activity (percentage inhibition of thrombus formation)” value in series [1] (setting [3]) came out at 46%. With `N#Cc1ccc(-c2ncccc2O[C@@H]2SC[C@@H](O)[C@H](O)[C@H]2O)cc1` [Example 12, [2-(4-cyanophenyl)-3-pyridinyl]5-thio-β-D-xylopyranoside], the “Oral activity: Activity (percentage inhibition of thrombus formation)” value in series [1] (setting [3]) was 14%. As for `O[C@@H]1[C@@H](O)[C@H](Oc2cncc(-c3ccccc3)c2)SC[C@H]1O` [Example 14, 5-phenyl-3-pyridinyl 5-thio-β-D-xylopyranoside], the inhibition in vivo at 6 mg/kg in series [1] (setting [2]) was found to be 50%. Turning to `CC(=O)O[C@@H]1[C@@H](OC(C)=O)[C@H](OC(C)=O)CS[C@H]1Oc1cncc(-c2ccc(C#N)cc2)c1` [Example 15, [5-(4-cyanophenyl)-3-pyridinyl]2,3,4-tri-O-acetyl-5-thio-β-D-xylopyranoside], the “Oral activity: Activity (percentage inhibition of thrombus formation)” value in series [1] (dose 8.2 mg/kg, thrombosis induced 2 h after administration) is reported as 84%. As for `Cc1cc(-c2cncc(O[C@@H]3SC[C@@H](O)[C@H](O)[C@H]3O)c2)ccc1F` [Example 59, 5-(4-fluoro-3-methylphenyl)-3-pyridinyl 5-thio-β-D-xylopyranoside], the melting point is 197 °C. In addition, the inhibition in vivo at 6 mg/kg in series [1] (setting [2]) worked out at 82%. With `Cc1cc(F)ccc1-c1cncc(O[C@@H]2SC[C@@H](O)[C@H](O)[C@H]2O)c1` [Example 61, 5-(4-fluoro-2-methylphenyl)-3-pyridinyl 5-thio-β-D-xylopyranoside], the melting point stood at 217 °C. For the same molecule, the inhibition in vivo at 6 mg/kg in series [1] (setting [2]) came out at 98%. `O[C@@H]1[C@@H](O)[C@H](Oc2cncc(-c3ccc(F)cc3Cl)c2)SC[C@H]1O` [Example 89, 5-(2-chloro-4-fluorophenyl)-3-pyridinyl 5-thio-β-D-xylopyranoside] came in with a melting point of 208 to 211 °C. The inhibition in vivo at 6 mg/kg in series [1] (setting [2]) worked out at 100%. In turn, `Cc1ccc(-c2ccc(O[C@@H]3SC[C@@H](O)[C@H](O)[C@H]3O)cn2)cc1` [Example 99, 6-(4-methylphenyl)-3-pyridinyl 5-thio-β-D-xylopyranoside] gave a melting point of 191 °C. Moreover, the inhibition in vivo at 6 mg/kg in series [1] (setting [2]) was found to be 72%. Molecule `COc1ccc(-c2ccncc2O[C@@H]2SC[C@@H](O)[C@H](O)[C@H]2O)cc1` [Example 101, 4-(4-methoxyphenyl)-3-pyridinyl 5-thio-β-D-xylopyranoside] gave a melting point of 228 °C. Besides, the inhibition in vivo at 6 mg/kg in series [1] (setting [2]) came out at 97%. As to `COc1ccc(-c2cncc(O[C@@H]3SC[C@@H](O)[C@H](O)[C@H]3O)c2)cc1F` [Example 103, 5-(3-fluoro-4-methoxyphenyl)-3-pyridinyl 5-thio-β-D-xylopyranoside], the melting point came out at 200 °C. Also, the inhibition in vivo at 6 mg/kg in series [1] (setting [2]) was 100%. Turning to `O[C@@H]1[C@@H](O)[C@H](Oc2cncc(-c3cccc(F)c3)c2)SC[C@H]1O` [Example 123, 5-(3-fluorophenyl)-3-pyridinyl 5-thio-β-D-xylopyranoside], the inhibition in vivo at 6 mg/kg in series [1] (setting [2]) is 97%.

Take `O[C@@H]1[C@@H](O)[C@H](Oc2cncc(-c3ccccc3F)c2)SC[C@H]1O` [Example 126, 5-(2-fluorophenyl)-3-pyridinyl 5-thio-β-D-xylopyranoside]: the inhibition in vivo at 6 mg/kg in series [1] (setting [2]) was determined as 91%. Still for that read-out and setting: to `O[C@@H]1[C@@H](O)[C@H](Oc2cncc(-c3ccc(F)c(Cl)c3)c2)SC[C@H]1O` [Example 131, 5-(3-chloro-4-fluorophenyl)-3-pyridinyl 5-thio-β-D-xylopyranoside] belongs 80%.

Consider `COc1c(F)cc(-c2cncc(O[C@@H]3SC[C@@H](O)[C@H](O)[C@H]3O)c2)cc1F` [Example 146, 5-(3,5-difluoro-4-methoxyphenyl)-3-pyridinyl 5-thio-β-D-xylopyranoside], for which the melting point worked out at 203 °C. For the molecule `N#Cc1cc(F)ccc1-c1cncc(O[C@@H]2SC[C@@H](O)[C@H](O)[C@H]2O)c1` [Example 148, 5-(2-cyano-4-fluorophenyl)-3-pyridinyl 5-thio-β-D-xylopyranoside], the melting point lay within 198 to 200 °C. On the same count and under the same terms, to `Cc1cc(-c2cncc(O[C@@H]3SC[C@@H](O)[C@H](O)[C@H]3O)c2)ccc1C#N` [Example 150, 5-(4-cyano-3-methylphenyl)-3-pyridinyl 5-thio-β-D-xylopyranoside] belongs 198 to 200 °C. `Cc1cc(C#N)ccc1-c1cncc(O[C@@H]2SC[C@@H](O)[C@H](O)[C@H]2O)c1` [Example 154, 5-(4-cyano-2-methylphenyl)-3-pyridinyl 5-thio-β-D-xylopyranoside] returned a melting point of 202 to 206 °C. Still for that read-out and setting: to `N#Cc1ccc(-c2cncc(O[C@@H]3SC[C@@H](O)[C@H](O)[C@H]3O)c2)cc1C#N` [Example 156, 5-(3,4-dicyanophenyl)-3-pyridinyl 5-thio-β-D-xylopyranoside] belongs 192 °C; to `CCN(CC)C(=O)c1cncc(O[C@@H]2SC[C@@H](O)[C@H](O)[C@H]2O)c1` [Example 160, 5-[(N,N-diethylamino)carbonyl]-3-pyridinyl 5-thio-β-D-xylopyranoside], 143 °C. The molecule `Cc1cc(F)ccc1-c1cc(O[C@@H]2SC[C@@H](O)[C@H](O)[C@H]2O)ccn1` [Example 162, 2-(4-fluoro-2-methylphenyl)-4-pyridinyl 5-thio-β-D-xylopyranoside] registered a melting point of 147 °C.

In general, melting point refers to the temperature of the solid-liquid transition.
